Patent US11883423B2, “Nucleobase analogue derivatives and their applications” (BOARD OF REGENTS, THE UNIVERSITY OF TEXAS SYSTEM, priority 2014, dated 2024)

Assays:
[1] = Octanol-water (PBS 7.4) partition coefficient; assay type: physicochemical; settings: in octanol under the test conditions
Procedure: The octanol-water partition coefficient of Gem-DHA was determined using a previously reported method with minor modifications (Hsu CH et al. Pharm Res. 2003, 20(6), 918-925). Briefly, octanol and PBS (7.4, 0.01 M) were mutually saturated for 24 h. Gem-DHA was dissolved in octanol (0.4 mg/ml, PBS-saturated) and 10 μl of the solution were withdrawn and diluted with methanol to measure Gem-DHA concentration using HPLC (C1) PBS was added to octanol at a volume ratio (VPBS/Voct) of 20:1 into a sealed vial under nitrogen, and the mixture was agitated vigorously at room temperature using a horizontal orbital shaker at 250 rpm (Max Q 2000, Thermo Scientific, Waltham, Mass.) while protected from light. After 5 h, the mixture was centrifuged (14,000 rpm, 15 min) and the concentration of Gem-DHA in the octanol layer was determined using HPLC (C2). Partition coefficient (Koctiwater) was calculated using the following equation: […]
The partition coefficient (octanol/PBS 7.4) of Gem-DHA was also measured using an indirect method by determining the concentration of the drug in octanol, before and after partitioning.

[2] = test system: Kras-Ink4a mice that spontaneously develop pancreatic tumors; experiment: Survival of Kras-Ink4a mice, genetically modified model of pancreatic cancer; assay type: in vivo, mouse; settings: i.p., 50 mg/kg
Procedure: Finally, the antitumor activity of Gem-DHA was also evaluated in a genetically modified mouse model of pancreatic cancer. Female Kras-Ink4a mice that spontaneously develop pancreatic tumors were obtained from Dr. Stephen Hursting's lab at the University of Texas at Austin (Lashinger L et al. Cancer Prevention Research. 2013, 6(10), 1046-1055). […] On the 20th week, one group of mice (n=5) started to receive Gem-DHA (50 mg/kg, in Tween 80/ethanol/water solution with 5% (w/v) of mannitol) by i.p. injection. The injection was repeated twice a week, once a week for the last 5 doses, for a total of 29 times. As a control, another group of mice (n=6) were left untreated. […] Shown in FIG. 15 are the survival curves of mice treated with Gem-DHA or left untreated. […] The median survival time of mice that were treated with Gem-DHA was 280 days, in comparison to 172 days for mice that were left untreated (p=0.01, Log-rank (Mantel-Cox) test).

Panc-02 tumors = experiment: Antitumor activity against s.c. Panc-02 tumors in C57BL/6 mice; assay type: in vivo
Procedure: Therefore, the in vivo anti-tumor activity of Gem-DHA was also evaluated and compared to that of DHA alone in male C57BL/6 mice (6-8 weeks, Charles River) with subcutaneously (s.c.)
implanted Panc-02 tumors. Briefly, 1×10^6 cells were s.c. injected in the right flank of mice. Sixteen days later, mice were randomized into groups (n=12) and i.p. injected with Gem-DHA (˜55 mg/kg, […]) or DHA (˜33 mg/kg, ˜0.1 mmole/kg). Mice in the control group were i.p. injected with sterile 5% mannitol (w/v). Gem-DHA and DHA was dissolved in a Tween 80/ethanol/water solution with 5% (w/v) of mannitol. The doses were based on the average weight of mice in the same group on the first day of injection. The treatment was repeated twice a week for up to 6 doses. Tumor growth was monitored using a digital caliper, and tumor volume was calculated based on the longest diameter (L1) and the shortest diameter (L2) of each tumor using the equation of V=½×(L1×L2×L2).

[3] = Chemical stability in Tween 80/ethanol/water formulation (HPLC); assay type: physicochemical; settings: for First order degradation rate constant k: aqueous formulation, mean ± SD (n=3)
Procedure: Gem-DHA was solubilized into an aqueous formulation that contains Tween 80 (10%, w/v) and ethanol (5.5%, v/v) (referred to as the Tween 80/ethanol/water formulation) to evaluate its in vivo activity. The stability of Gem-DHA in this formulation was evaluated in crimp-sealed amber glass vials under nitrogen atmosphere. Briefly, 150 μl of the Gem-DHA aqueous solution at a concentration of about 7 mg/ml were added to the amber glass vials under nitrogen atmosphere, and the vials were crimp-sealed with aluminum seals over rubber lids. At predetermined time intervals, 10 μl of the solution were diluted with 90 μl of methanol and mixed, and the concentration was measured using HPLC. Stability tests were carried out at room temperature (˜22° C.) or 4° C. in triplicates. Vitamin E was added in the formulation to a final concentration of 0.01% or 0.04% (v/v) to evaluate the effect of vitamin E on the chemical stability of Gem-DHA.
The degradation was slower at 4° C. […] Indeed, it was reported that a higher concentration of vitamin E may not necessarily have a higher anti-oxidative activity, as higher concentrations may sometimes lead to opposite effects (Owen S C. In: Rowe R C, Sheskey P J, Owen S C Eds, Handbook of Pharmaceutical Excipients. London, Pharmaceutical Press, 2006; 32-35).
To study the effect of temperature on the chemical stability of Gem-DHA, the Gem-DHA formulation in crimp-sealed vials under nitrogen was stored in room temperature, 37° C., or 60° C., protected from light. Sampling and analyses were carried out at pre-determined time points as described above. The first order degradation reaction equation was used to calculate the values of the reaction rate (k) at different temperatures (Table 2). An Arrhenius plot was constructed by plotting the In k values vs. 1/T to calculate the activation energy (Ea, in kcal/mol). The activation energy of the chemical reaction was calculated to be 12.86 kcal/mol (FIG. 2C).

CC/C=C\C/C=C\C/C=C\C/C=C\C/C=C\C/C=C\CCC(=O)Nc1ccn(C2OC(CO)C(O)C2(F)F)c(=O)n1 (stereo not drawn) [Gem-DHA, 4-(N)-Docosahexaenoyl Difluorodeoxycytidine]
Time stable in octanol [1]: at least 18 h | Median survival time ([2]; 29 injections from week 20, untreated 172 days, p=0.01): 280 days | Survival of the mice ([2]; versus untreated): significantly prolonged the survival | Tolerability (body weights) (Panc-02 tumors; Panc-02 tumor-bearing mice, dosing regimen tested): well tolerated | Inhibition of Panc-02 tumor growth (Panc-02 tumors; i.p., ~0.1 mmole/kg, twice a week, up to 6 doses): significantly inhibited the tumor growth | Degradation in Tween 80/ethanol/water formulation ([3]; 4° C., compared with room temperature): slower | Activation energy (Ea) of the degradation ([3]; Arrhenius plot of ln k vs 1/T): 12.86 kcal/mol | First order degradation rate constant k ([3]; 37° C.): 0.042 ± 0.005 h⁻¹ | First order degradation rate constant k ([3]; 60° C.): 0.106 ± 0.009 h⁻¹ | First order degradation rate constant k ([3]; room temperature (~22° C.)): 0.018 ± 0.001 h⁻¹ | Degradation in Tween 80/ethanol/water formulation ([3]; room temperature (~22° C.)): found to degrade at room temperature | Degradation in Tween 80/ethanol/water formulation ([3]; with vitamin E 0.01% or 0.04%, 0.01% more effective than 0.04%): slower in the presence of vitamin E
